# Source: BindingDB's records for doi:10.3109/14756366.2012.680062 (Shandong University, 2013)
# Target: T1, Aminopeptidase N (Sus scrofa, UniProt P15145)
# T1 sequence (P15145 whole entry): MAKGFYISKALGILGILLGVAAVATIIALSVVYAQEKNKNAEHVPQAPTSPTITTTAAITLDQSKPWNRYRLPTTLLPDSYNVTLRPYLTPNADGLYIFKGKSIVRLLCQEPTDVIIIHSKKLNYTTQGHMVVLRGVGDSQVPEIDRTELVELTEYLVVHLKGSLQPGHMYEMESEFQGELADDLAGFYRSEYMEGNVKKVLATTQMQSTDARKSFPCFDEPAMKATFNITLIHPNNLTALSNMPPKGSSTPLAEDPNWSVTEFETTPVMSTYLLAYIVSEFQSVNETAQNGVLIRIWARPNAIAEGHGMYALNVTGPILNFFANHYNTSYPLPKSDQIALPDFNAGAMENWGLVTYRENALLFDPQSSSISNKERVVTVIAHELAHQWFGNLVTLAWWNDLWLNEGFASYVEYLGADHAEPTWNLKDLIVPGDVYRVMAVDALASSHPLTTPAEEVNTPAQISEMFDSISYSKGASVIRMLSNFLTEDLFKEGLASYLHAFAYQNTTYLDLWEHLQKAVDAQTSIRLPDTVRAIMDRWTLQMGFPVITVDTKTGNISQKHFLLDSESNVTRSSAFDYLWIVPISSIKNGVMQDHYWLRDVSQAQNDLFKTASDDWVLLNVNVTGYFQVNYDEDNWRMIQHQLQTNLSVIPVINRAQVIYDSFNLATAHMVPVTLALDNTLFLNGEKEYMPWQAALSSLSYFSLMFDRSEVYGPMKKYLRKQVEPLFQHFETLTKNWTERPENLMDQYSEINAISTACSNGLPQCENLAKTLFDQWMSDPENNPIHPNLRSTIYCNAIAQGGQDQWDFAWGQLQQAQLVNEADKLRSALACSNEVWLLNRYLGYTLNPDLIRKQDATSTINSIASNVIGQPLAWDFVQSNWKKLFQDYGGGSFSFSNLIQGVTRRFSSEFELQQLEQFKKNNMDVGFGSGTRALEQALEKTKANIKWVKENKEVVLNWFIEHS
# Experiment: In Vitro APN Inhibition Assay
# Conditions: pH 7.2
row,Compound,IC50 [µM]
1,CCC(C)[C@H](NC(=O)[C@H](Cc1ccccc1)NC(=O)[C@@H](O)CN)C(=O)O (stereo partly drawn) [2-[2-(3-amino-2-hydroxypropanamido)-3-phenylpropanamido]-3-methylpentanoic acid (16a)],30.4
2,CC(C)[C@H](NC(=O)[C@H](Cc1ccccc1)NC(=O)[C@@H](O)CN)C(=O)O [L-isoserine-L-phenylalanine-L-valine (16b)],94
3,CC(C)C[C@H](NC(=O)[C@@H](O)CN)C(=O)N[C@@H](Cc1ccc(O)cc1)C(=O)O [L-isoserine-L-eucyl-L-tyrosinase (16m)],17.5
4,CC(C)[C@H](NC(=O)[C@@H](NC(=O)[C@@H](O)CN)c1ccccc1)C(=O)O [L-isoserine-L-phenylglycine-L-valine (16c)],51.5
5,CC(C)[C@H](NC(=O)[C@@H](O)CN)C(=O)N[C@@H](Cc1ccccc1)C(=O)O [L-isoserine-L-valine-L-phenylalanine (16d)],30.2

# Compounds with a lower IC50, results first:
row,IC50 [µM],Compound
1,13.6,CC(C)[C@H](NC(=O)[C@@H](NC(=O)[C@@H](O)CN)C(C)C)C(=O)O [L-isoserine-L-valine-L-valine (16f)]
2,11.6,CC(C)C[C@H](NC(=O)[C@@H](NC(=O)[C@@H](O)CN)c1ccccc1)C(=O)O [L-isoserine-L-phenylglycine-L-leucyl (16k)]
3,11.5,CC(C)[C@H](NC(=O)[C@H](Cc1ccc(O)cc1)NC(=O)[C@@H](O)CN)C(=O)O [L-isoserine-L-tyrosinase-L-valine (16e)]
4,6.5,NC[C@H](O)C(=O)N[C@@H](Cc1ccccc1)C(=O)N[C@@H](Cc1ccccc1)C(=O)O [L-isoserine-L-phenylalanine-L-phenylalanine (16n)]
5,6.5,CC(C)C[C@H](NC(=O)[C@@H](NC(=O)[C@@H](O)CN)C(C)C)C(=O)O [L-isoserine-L-valine-L-leucyl (16h)]
6,5.8,NC[C@H](O)C(=O)N[C@H](C(=O)N[C@@H](Cc1ccccc1)C(=O)O)c1ccccc1 [L-isoserine-L-phenylglycine-L-phenylalanine (16g)]
7,5.16,CC(C)C[C@H](NC(=O)[C@@H](O)CN)C(=O)N[C@H](C(=O)O)C(C)C [L-isoserine-L-leucyl-L-valine (16i)]
8,2.51,CC(C)C[C@H](NC(=O)[C@H](Cc1ccc(O)cc1)NC(=O)[C@@H](O)CN)C(=O)O [L-isoserine-L-tyrosinase-L-leucyl (16l)]
